From patent US20220008359A1, “COMBINATION ANTI-CANCER PRODUCTS AND METHODS” (priority 2020, published 2022)
Marks after values point to notes of the source that are not given here.

Experiments:
[1] = system: osimertinib-resistant (OR) H1650 cells; assay: In-cell immunostaining of protein expression and phosphorylation, osimertinib-resistant H1650 cells; type: cell-based, human; conditions: 6 h, VEH = 100
Protocol: Generation of erlotinib, afatinib and osimertinib-resistant cells. Cells were incubated in vitro with increasing concentrations of vehicle control or erlotinib or osimertinib until after ˜6 weeks the HCC827 and H1975 and H1650 cells grew with similar kinetics to sensitive cells in either erlotinib ([…]) or osimertinib ([…]), respectively. Afatinib-resistant cells were created in vivo by repeated high dosing until tumors disappeared and then regrew, as previously described.
(§1) Assessments of protein expression and protein phosphorylation. Multi-channel fluorescence HCS microscopes perform true in-cell western blotting. Three independent cultures derived from three thawed vials of cells of a tumor were sub-cultured into individual 96-well plates. Twenty-four hours after plating, the cells are transfected with a control plasmid or a control siRNA, or with an empty vector plasmid or with plasmids to express various proteins. After another 24 hours, the cells are ready for drug exposure(s). At various time-points after the initiation of drug exposure, cells are fixed in place using paraformaldehyde and using Triton X100 for permeabilization. Standard immunofluorescent blocking procedures are employed, followed by incubation of different wells with a variety of validated primary antibodies and subsequently validated fluorescent-tagged secondary antibodies are added to each well. The microscope determines the background fluorescence in the well and in parallel randomly determines the mean fluorescent intensity of 100 cells per well.

H1650 cells (wild type) = assay: In-cell immunostaining of protein expression and phosphorylation, H1650 wild type cells; type: cell-based, human; conditions: H1650 WT, 6 h; VEH = 100
Protocol: as §1

`Nc1nc2[nH]cc(CCc3ccc(C(=O)N[C@@H](CCC(=O)O)C(=O)O)cc3)c2c(=O)[nH]1` [PEM, Pemetrexed] was tested, and the BCL-XL expression [1] was 85*, the ERK2 expression [1] was 100 and the FLIP-s expression [1] was 93. For the same molecule, the MCL-1 expression [1] was 86*, the BCL-XL expression (H1650 cells (wild type)) was 84* and the ERK2 expression (H1650 cells (wild type)) was 100. For the same molecule, the FLIP-s expression (H1650 cells (wild type)) was 92 and the MCL-1 expression (H1650 cells (wild type)) was 83*.
